This note sets out measurements from US6734182B2, “Aryl sulfonamides and sulfamide derivatives and uses thereof” (Synaptic Pharmaceutical Corporation, priority 1995, dated 2004).

One experiment has as its target T1, human Y1 receptor (Homo sapiens, UniProt P25929).
T1 construct: expressed in transfected cells
T1 sequence (P25929 1-384): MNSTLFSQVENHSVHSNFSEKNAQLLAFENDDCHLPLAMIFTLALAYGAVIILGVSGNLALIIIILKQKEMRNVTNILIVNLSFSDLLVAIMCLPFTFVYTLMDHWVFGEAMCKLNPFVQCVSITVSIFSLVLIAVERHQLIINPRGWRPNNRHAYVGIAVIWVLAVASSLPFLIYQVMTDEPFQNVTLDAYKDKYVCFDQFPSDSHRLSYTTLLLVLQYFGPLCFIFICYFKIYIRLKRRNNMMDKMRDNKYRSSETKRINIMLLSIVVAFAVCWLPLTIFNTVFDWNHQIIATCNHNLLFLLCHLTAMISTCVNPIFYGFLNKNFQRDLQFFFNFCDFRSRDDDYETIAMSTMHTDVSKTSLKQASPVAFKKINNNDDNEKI
Put plainly: Radioligand binding to cloned human Y1 receptor (125I-PYY). The settings on record: cloned human Y1, stably transfected cells, read-out: Binding Affinity (K1 (nM) vs. 125I-PYY) Human Receptor Y1.

The next experiment has as its target T2, human Y2 receptor (Homo sapiens, UniProt P49146).
T2 construct: expressed in transfected cells
T2 sequence (P49146 1-381): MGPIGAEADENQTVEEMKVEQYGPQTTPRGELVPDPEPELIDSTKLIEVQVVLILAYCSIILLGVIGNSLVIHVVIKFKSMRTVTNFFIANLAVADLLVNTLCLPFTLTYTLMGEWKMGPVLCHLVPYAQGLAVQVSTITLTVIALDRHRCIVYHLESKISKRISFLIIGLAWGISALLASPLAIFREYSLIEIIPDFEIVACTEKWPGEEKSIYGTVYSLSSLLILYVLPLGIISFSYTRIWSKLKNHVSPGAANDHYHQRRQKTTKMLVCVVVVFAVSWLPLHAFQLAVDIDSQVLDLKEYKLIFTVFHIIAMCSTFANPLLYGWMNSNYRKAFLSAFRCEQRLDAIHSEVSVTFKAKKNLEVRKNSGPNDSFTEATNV
Put plainly: Radioligand binding to cloned human Y2 receptor (125I-PYY). To be noted: cloned human Y2, stably transfected cells, read-out: Binding Affinity (K1 (nM) vs. 125I-PYY) Human Receptor Y2. Here is the method:
(§1) Human Y1, human Y2, and rat Y5 receptors were co-transfected with a G-418 resistant gene into the human embryonic kidney 293 cell line by a calcium phosphate transfection method (Cullen, 1987). Stably transfected cells were selected with G-418. Human Y4 and human Y5 receptors were similarly transfected into mouse fibroblast LM(tk−) cells and NIH-3T3 cells.
(§2) Binding of the compounds of the present invention to the human Y1, Y2, Y4 and Y5 receptors was evaluated using stably transfected 293 or LM(tk−) cells as described above. Stably transfected cell lines which may be used for binding assays include, for example, for the human Y1 receptor, 293-hY1-5 (deposited Jun. 4, 1996, under ATCC Accession No. CRL-12121), for the human Y2 receptor, 293-hY2-10 (deposited Jan. 27, 1994, under ATCC Accession No. CRL-11537), for the human Y4 receptor, L-hY4-3 (deposited Jan. 11, 1995, under ATCC Accession No. CRL-11779), and for the human Y5 receptor, L-hY5-7 (deposited Nov. 15, 1995, under ATCC Accession No. CRL-11995).
(§3) Membranes were harvested from COS-7 cells 48 hours after transient transfection. Adherent cells were washed twice in ice-cold phosphate buffered saline (138 mM NaCl, 8.1 mM Na2HPO4, 2.5 mM KCl, […], 0.9 mM CaCl2, 0.5 mM MgCl2, pH 7.4) and lysed by sonication in ice-cold sonication buffer (20 mM Tris-HCl, 5 mM EDTA, pH 7.7). Large particles and debris were cleared by low speed centrifugation (200 x g, 5 min, 4° C.). Membranes were collected from the supernatant fraction by centrifugation (32,000 x g, 18 min, […] ), washed with ice-cold hypotonic buffer, and collected again by centrifugation (32,000 x g, 18 min, 4° C.). […] Protein concentration was measured by the Bradford method (Bradford, 1976) using Bio-Rad Reagent, with bovine serum albumin as a standard. Membranes were held on ice for up to one hour and used fresh, or flash-frozen and stored in liquid nitrogen.
(§4) Membranes were prepared similarly from 293, LM(tk−), and NIH-3T3 cells. To prepare membranes from baculovirus infected cells, 2×10^7 Sf21 cells were grown in 150 mm tissue culture dishes and infected with a high-titer stock of hY5BB3. Cells were incubated for 2-4 days at 27° C., no CO2 be fore harvesting and membrane preparation as described above.

A further experiment addresses T3, human Y4 receptor (Homo sapiens, UniProt P50391).
T3 construct: expressed in transfected cells
The experiment is described as follows: Radioligand binding to cloned human Y4 receptor (125I-PYY). The settings on record: cloned human Y4, stably transfected cells, read-out: Binding Affinity (K1 (nM) vs. 125I-PYY) Human Receptor Y4. Here is the method:
as §1, §2, §3, §4

The next experiment has as its target T4, cloned human Y5 receptor (Homo sapiens, UniProt Q15761).
T4 construct: expressed in transfected cells
T4 sequence (Q15761 1-445): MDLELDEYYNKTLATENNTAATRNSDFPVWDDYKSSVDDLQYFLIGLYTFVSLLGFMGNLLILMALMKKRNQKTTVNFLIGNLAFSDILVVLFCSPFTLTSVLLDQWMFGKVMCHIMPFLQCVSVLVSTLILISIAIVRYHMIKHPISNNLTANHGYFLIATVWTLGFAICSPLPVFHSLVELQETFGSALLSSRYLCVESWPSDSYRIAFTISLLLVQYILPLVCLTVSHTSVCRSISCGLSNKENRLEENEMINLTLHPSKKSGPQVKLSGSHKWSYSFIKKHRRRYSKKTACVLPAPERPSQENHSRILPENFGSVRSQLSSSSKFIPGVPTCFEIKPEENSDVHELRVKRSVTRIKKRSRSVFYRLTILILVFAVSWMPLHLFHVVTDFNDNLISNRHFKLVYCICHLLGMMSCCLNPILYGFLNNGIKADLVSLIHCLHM
The experiment is described as follows: Functional assay: block of NPY-induced inhibition of cAMP accumulation in forskolin-stimulated LM(tk-) cells (radioimmunoassay of cAMP). Format: cell-based. To be noted: antagonism of NPY-induced inhibition of cAMP accumulation, forskolin-stimulated LM(tk-) cells with human Y5; at least three experiments. On the technique in general: cAMP levels reflect the balance of adenylyl cyclase and phosphodiesterase activity.

Experiment [1] deals with food intake in food-deprived rats. The experiment is described as follows: Food intake in food-deprived rats (24 h food deprivation). Format: in vivo, rat. On the set-up: concentration or dose not given beside the values. To be noted: rats after 24 h food deprivation; two hours after administration of test compound.
For a further experiment, the target named is T5, human α1a receptor (Homo sapiens, UniProt P35348).
T5 construct: expressed in transfected cells
T5 sequence (P35348 whole entry): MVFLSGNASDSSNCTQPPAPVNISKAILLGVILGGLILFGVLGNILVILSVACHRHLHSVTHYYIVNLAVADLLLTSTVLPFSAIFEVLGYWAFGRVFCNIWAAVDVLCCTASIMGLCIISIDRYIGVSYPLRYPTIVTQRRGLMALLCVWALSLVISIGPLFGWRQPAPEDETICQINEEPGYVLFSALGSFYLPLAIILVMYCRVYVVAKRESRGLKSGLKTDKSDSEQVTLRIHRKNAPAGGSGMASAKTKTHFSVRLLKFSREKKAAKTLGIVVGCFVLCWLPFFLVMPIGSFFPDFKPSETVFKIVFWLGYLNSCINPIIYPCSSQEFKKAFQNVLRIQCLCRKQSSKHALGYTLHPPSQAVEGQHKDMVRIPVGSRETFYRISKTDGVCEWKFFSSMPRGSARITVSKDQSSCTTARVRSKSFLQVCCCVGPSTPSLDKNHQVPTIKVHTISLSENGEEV
Put plainly: Binding to cloned human α1a adrenergic receptor.

The next experiment concerns the target T6, human α2C receptor (Homo sapiens, UniProt P18825).
T6 construct: expressed in transfected cells
The experiment is described as follows: Binding to cloned human α2C adrenergic receptor ([3H]rauwolscine).

The target in another experiment is T7, human 5HT1Dβ receptor (Homo sapiens, UniProt P28222).
T7 construct: expressed in transfected cells
T7 sequence (P28222 whole entry): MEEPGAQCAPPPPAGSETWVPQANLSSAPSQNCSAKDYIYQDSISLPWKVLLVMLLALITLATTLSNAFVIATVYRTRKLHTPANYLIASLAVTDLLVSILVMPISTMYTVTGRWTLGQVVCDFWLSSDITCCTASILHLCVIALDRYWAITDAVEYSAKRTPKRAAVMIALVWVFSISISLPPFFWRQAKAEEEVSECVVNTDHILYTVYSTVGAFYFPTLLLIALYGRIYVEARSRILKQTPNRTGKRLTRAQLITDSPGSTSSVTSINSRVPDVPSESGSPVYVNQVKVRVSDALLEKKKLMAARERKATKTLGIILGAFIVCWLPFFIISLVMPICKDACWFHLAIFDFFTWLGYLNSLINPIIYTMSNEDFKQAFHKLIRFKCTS
The experiment is described as follows: Binding to human 5HT1Dβ receptor ([3H]serotonin). The settings on record: cloned human receptor.

By Kb is commonly meant the affinity of an antagonist, worked out from how it opposes an agonist.

T3 sequence (P50391 whole entry): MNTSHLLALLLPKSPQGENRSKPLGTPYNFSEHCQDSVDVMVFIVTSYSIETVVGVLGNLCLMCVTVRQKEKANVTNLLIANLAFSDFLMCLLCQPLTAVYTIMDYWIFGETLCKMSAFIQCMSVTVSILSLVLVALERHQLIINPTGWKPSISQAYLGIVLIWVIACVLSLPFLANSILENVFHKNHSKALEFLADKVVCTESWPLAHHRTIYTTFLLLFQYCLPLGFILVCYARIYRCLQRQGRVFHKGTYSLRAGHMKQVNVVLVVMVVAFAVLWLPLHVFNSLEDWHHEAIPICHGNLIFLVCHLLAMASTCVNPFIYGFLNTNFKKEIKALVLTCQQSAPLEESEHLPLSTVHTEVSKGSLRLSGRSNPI
T6 sequence (P18825 whole entry): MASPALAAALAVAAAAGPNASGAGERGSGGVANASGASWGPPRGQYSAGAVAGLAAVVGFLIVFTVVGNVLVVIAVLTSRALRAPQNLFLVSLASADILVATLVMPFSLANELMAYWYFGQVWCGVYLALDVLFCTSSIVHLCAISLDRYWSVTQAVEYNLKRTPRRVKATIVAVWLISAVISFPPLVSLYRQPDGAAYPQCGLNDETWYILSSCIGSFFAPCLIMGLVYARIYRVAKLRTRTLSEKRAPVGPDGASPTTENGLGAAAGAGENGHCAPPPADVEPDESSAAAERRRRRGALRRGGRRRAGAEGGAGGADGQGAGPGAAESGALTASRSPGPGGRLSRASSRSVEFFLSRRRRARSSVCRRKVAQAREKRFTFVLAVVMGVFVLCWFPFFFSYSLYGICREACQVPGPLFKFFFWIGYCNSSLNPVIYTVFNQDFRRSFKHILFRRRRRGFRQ
Description for cloned human Y5 receptor: LM(tk−) cells stably transfected with the human Y5 receptor were routinely converted from an adherent monolayer to a viable suspension. […] The cell suspension was maintained in a shaking incubator at 37° C., 5% CO2 for 24 hours.
Stably transfected cells were seeded into 96-well microtiter plates and cultured until confluent.
The ability of the compounds to antagonize the Y-type receptors is reported as the Kb. […] Results shown are representative of at least three indepenent experiments.
Description for human 5HT1Dβ receptor: 5HT1Dα, 5HT1Dβ, 5HT1E, 5HT1F Receptors: LM(tk−) clonal cell lines stably transfected with the genes encoding each of these 5HT receptor subtypes were prepared as described above. […] Membrane preparations comprising these receptors were prepared as described below, and suspended in 50 mM Tris-HCl buffer (pH 7.4 at 37° C.) containing 10 mM MgCl2, 0.2 mM EDTA, 10 μM pargyline, and 0.1% ascorbate. The binding of compounds was determined in competition binding assays by incubation for 30 minutes at 37° C. in the presence of 5 nM [^3H) serotonin. Nonspecific binding was determined in the presence of 10 μM serotonin.
Description for human Y1 receptor: Membranes were harvested from COS-7 cells 48 hours after transient transfection. […] Large particles and debris were cleared by low speed centrifugation (200 x g, 5 min, 4° C.). […] Membranes were held on ice for up to one hour and used fresh, or flash-frozen and stored in liquid nitrogen.
Incubations were terminated by filtration over Whatman GF/C filters (pre-coated with 1% polyethyleneimine and air-dried before use), followed by washing with 5 mL of ice-cold binding buffer.
Excerpt for human α1a receptor: α1 Human Adrenergic Receptors: To determine the binding of compounds to human α1 receptors, LM(tk−) cell lines stably transfected with the genes encoding the α1a, α1b, and α1d receptors were used. The nomenclature describing the α1 receptors was changed recently, such that the receptor formerly designated α1a is now designated α1d, and the receptor formerly designated α1c is now designated α1a (ref).
Description for human α2C receptor: α2 Human Adrenergic Receptors: To determine the binding of compounds to human α2 receptors, LM(tk−) cell lines stably transfected with the genes encoding the α2A, α2B, and α2C receptors were used. […] Cell lysates were prepared as described below (see Radioligand Dinding to Membrane Suspensions), and suspended in 25 mM glycylglycine buffer (pH 7.6 at room temperature). Equilibrium competition binding assay were performed using [^3H]rauwolscine (0.5 nM), and nonspecific binding was determined by incubation with 10 μM phentolamine.

On to `Cl.O=[N+]([O-])c1ccccc1S(=O)(=O)NCC1CCC(CNCC2CCc3ccccc3C2)CC1` (stereo not drawn) [Example 36], for which the Ki on human Y1 receptor was 16000 nM; on human Y2 receptor it was 7760 nM; at human Y4 receptor it was 20400 nM. This compound also yielded a Kb on cloned human Y5 receptor of 0.026 µM. The “Two-hour food intake, percentage of intake compared to control rats, Mean (%)” value in experiment [1] is listed as 35%. The “Receptor (pKi) α1a” value on human α1a receptor worked out at 7.72. Moreover, the “Receptor (pKi) α2c” value at human α2C receptor is recorded as 7.39. Also, the “Receptor (pKi) 5HT1Dβ” value at human 5HT1Dβ receptor stood at 5.37.

As to `Cl.O=S(=O)(NCC1CCC(CNCC2CCc3ccccc3C2)CC1)c1cccc2ccccc12` (stereo not drawn) [Example 32], the Ki on human Y1 receptor is 3550 nM; on human Y2 receptor it was 955 nM; at human Y4 receptor, 11700 nM. The same compound returned a Kb on cloned human Y5 receptor of 0.023 µM. Besides, in experiment [1], the “Two-hour food intake, percentage of intake compared to control rats, Mean (%)” value is 36%. The “Receptor (pKi) α1a” value on human α1a receptor was 7.47. In addition, the “Receptor (pKi) 5HT1Dβ” value on human 5HT1Dβ receptor is reported as no more than 5.30.
